This is an account of results in patent US20240400555A1 (Initial Therapeutics, Inc., priority 2023, published 2024).

For orientation: IC50 means the midpoint of a concentration-inhibition curve.

Molecules are shown by their SMILES.

This experiment deals with MV-4-11 cells. Description: Cell Viability Assay in MV-4-11 Cells. In kind it is cell-based. Conditions: Homo sapiens, MV4-11, 72 h, MV-4-11 cells, 72 h, Cell-Titer Glo; read-out: IC50. Summed up:
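Luminescent ATP read-out (CellTiter-Glo) after 72 h compound treatment of MV-4-11 leukaemia cells (7,000 per well, IMDM plus 10% FBS). Values expressed relative to DMSO control and derived by four-parameter non-linear regression.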
As for `Cc1cccc2ccnc(N(C(=O)c3ccc(Nc4nccc(-n5cncn5)n4)cc3F)[C@@H]3CCCNC3)c12` [Example 722, (R)-4-((4-(1H-1,2,4-triazol-1-yl)pyrimidin-2-yl)amino)-2-fluoro-N-(8-methylisoquinolin-1-yl)-N-(piperidin-3-yl)benzamide], the IC50 was 160 nM.
Turning to `Cc1cccc2ccnc(N(C(=O)c3ccc(Nc4nccc(-n5cccn5)n4)cc3F)[C@@H]3CCCNC3)c12` [Example 723, (R)-4-((4-(1H-pyrazol-1-yl)pyrimidin-2-yl)amino)-2-fluoro-N-(8-methylisoquinolin-1-yl)-N-(piperidin-3-yl)benzamide], the IC50 is 81 nM.
Take `Cc1cccc2ccnc(N(C(=O)c3ccc(Nc4nccc(-n5ccnc5)n4)cc3F)[C@@H]3CCCNC3)c12` [Example 724, (R)-4-((4-(1H-imidazol-1-yl)pyrimidin-2-yl)amino)-2-fluoro-N-(8-methylisoquinolin-1-yl)-N-(piperidin-3-yl)benzamide]: the IC50 turned out to be 56 nM.
In the case of `Cc1nnc(-c2ccc(C(=O)N(c3nccc4cc(F)cc(C)c34)C3CCCNC3)cc2)s1` (centres unmarked) [Example 725, N-(6-fluoro-8-methyl-1-isoquinolyl)-4-(5-methyl-1,3,4-thiadiazol-2-yl)-N-(3-piperidyl)benzamide], the IC50 is 210 nM.
As to `CNc1cccnc1Nc1ccc(C(=O)N(c2nccc3cccc(C)c23)[C@@H]2CCCNC2)c(F)c1` [Example 726, (R)-2-fluoro-4-((3-(methylamino)pyridin-2-yl)amino)-N-(8-methylisoquinolin-1-yl)-N-(piperidin-3-yl)benzamide], the IC50 amounted to 1900 nM.
For `Cc1cccc2ccnc(N(C(=O)c3ccc(Nc4nccc(-c5cccnc5)n4)cc3F)[C@@H]3CCCNC3)c12` [Example 727, (R)-2-fluoro-N-(8-methylisoquinolin-1-yl)-N-(piperidin-3-yl)-4-((4-(pyridin-3-yl)pyrimidin-2-yl)amino)benzamide] the value was 32 nM.
As for `Cc1cccc2ccnc(N(C(=O)c3ccc(Nc4nccc(-c5ccccn5)n4)cc3F)[C@@H]3CCCNC3)c12` [Example 728, (R)-2-fluoro-N-(8-methylisoquinolin-1-yl)-N-(piperidin-3-yl)-4-((4-(pyridin-2-yl)pyrimidin-2-yl)amino)benzamide], the figure is 86 nM.
As for `COCCn1nc(C)cc1-c1ccc(C(=O)N(c2nccc3cc(F)cc(C)c23)[C@@H]2CCCNC2)nc1` [Example 729, (R)—N-(6-fluoro-8-methylisoquinolin-1-yl)-5-(1-(2-methoxyethyl)-3-methyl-1H-pyrazol-5-yl)-N-(piperidin-3-yl)picolinamide], the IC50 is > 6500 nM.
Consider `CCc1nnc(-c2ccc(C(=O)N(c3nccc4cc(Cl)cc(C)c34)[C@@H]3CCCNC3)nc2)s1` [Example 730, (R)—N-(6-chloro-8-methylisoquinolin-1-yl)-5-(5-ethyl-1,3,4-thiadiazol-2-yl)-N-(piperidin-3-yl)picolinamide], for which the IC50 stood at 260 nM.
As for `COC/C=C(\Cl)c1ccnc(Nc2ccc(C(=O)N(c3nccc4cccc(C)c34)[C@@H]3CCCNC3)c(F)c2)n1` [Example 731, (R)-4-((4-(1-chloro-3-methoxyprop-1-en-1-yl)pyrimidin-2-yl)amino)-2-fluoro-N-(8-methylisoquinolin-1-yl)-N-(piperidin-3-yl)benzamide], the figure is 120 nM; as for `Cc1ncc(-c2cc(C)c3c(N(C(=O)c4ccc(-c5nnc(C)s5)cc4F)[C@@H]4CCCNC4)nccc3c2)s1` [Example 732, 2-fluoro-N-[8-methyl-6-(2-methylthiazol-5-yl)-1-isoquinolyl]-4-(5-methyl-1,3,4-thiadiazol-2-yl)-N-[(3R)-3-piperidyl]benzamide], 49 nM; as for `Cc1cccc2ccnc(N(C(=O)c3ccc(Nc4nccc(NCCO)n4)cc3F)[C@@H]3CCCNC3)c12` [Example 734, (R)-2-fluoro-4-((4-((2-hydroxyethyl)amino)pyrimidin-2-yl)amino)-N-(8-methylisoquinolin-1-yl)-N-(piperidin-3-yl)benzamide], 81 nM.
`Cc1cccc2ccnc(N(C(=O)c3ccc(Nc4nccc(O)n4)cc3F)[C@@H]3CCCNC3)c12` [Example 735, (R)-2-fluoro-4-((4-hydroxypyrimidin-2-yl)amino)-N-(8-methylisoquinolin-1-yl)-N-(piperidin-3-yl)benzamide]: the half-maximal inhibitory concentration (IC50) is > 6200 nM.
For `Cc1cccc2ccnc(N(C(=O)c3ccc(Nc4nccc(CCO)n4)cc3F)[C@@H]3CCCNC3)c12` [Example 736, (R)-2-fluoro-4-((4-(2-hydroxyethyl)pyrimidin-2-yl)amino)-N-(8-methylisoquinolin-1-yl)-N-(piperidin-3-yl)benzamide] the value was 220 nM.
For `Cc1cc(C2=NOC(C)(C)C2=O)ccc1C(=O)N(c1nccc2sc(C#CCO)cc12)[C@@H]1CCCNC1` [Example 737, (R)-4-(5,5-dimethyl-4-oxo-4,5-dihydroisoxazol-3-yl)-N-(2-(3-hydroxyprop-1-yn-1-yl)thieno[3,2-c]pyridin-4-yl)-2-methyl-N-(piperidin-3-yl)benzamide] the value was 2100 nM; for `O=C(c1ccc(Nc2ncccn2)cc1F)N(c1nccc2cc(Nc3ncccn3)ccc12)[C@@H]1CCCNC1` [Example 738, (R)-2-fluoro-N-(piperidin-3-yl)-4-(pyrimidin-2-ylamino)-N-(6-(pyrimidin-2-ylamino)isoquinolin-1-yl)benzamide], 3700 nM; for `Cc1cc2c(N(C(=O)c3ccc(-n4nnc5cccnc54)cc3F)[C@@H]3CCCNC3)nccc2s1` [Example 739, (R)-4-(3H-[1,2,3]triazolo[4,5-b]pyridin-3-yl)-2-fluoro-N-(2-methylthieno[3,2-c]pyridin-4-yl)-N-(piperidin-3-yl)benzamide], 650 nM.
Turning to `O=C(c1ccc(-n2nnc3cccnc32)cc1F)N(c1nccc2sc(C3CC3)cc12)[C@@H]1CCCNC1` [Example 740, (R)-4-(3H-[1,2,3]triazolo[4,5-b]pyridin-3-yl)-N-(2-cyclopropylthieno[3,2-c]pyridin-4-yl)-2-fluoro-N-(piperidin-3-yl)benzamide], the IC50 was found to be 600 nM.
In the case of `Cc1cccc2ccnc(N(C(=O)c3ccc(Nc4nccc(CN5CCOCC5)n4)cc3F)[C@@H]3CCCNC3)c12` [Example 741, (R)-2-fluoro-N-(8-methylisoquinolin-1-yl)-4-((4-(morpholinomethyl)pyrimidin-2-yl)amino)-N-(piperidin-3-yl)benzamide], the 50% inhibitory concentration (IC50) amounted to 310 nM.
As for `COCCN(C)c1ccnc(Nc2ccc(C(=O)N(c3nccc4cccc(C)c34)[C@@H]3CCCNC3)c(F)c2)n1` [Example 742, (R)-2-fluoro-4-((4-((2-methoxyethyl)(methyl)amino)pyrimidin-2-yl)amino)-N-(8-methylisoquinolin-1-yl)-N-(piperidin-3-yl)benzamide], the figure is 82 nM; as for `Cc1cccc2ccnc(N(C(=O)c3ccc(Nc4nccc(N(C)CCO)n4)cc3F)[C@@H]3CCCNC3)c12` [Example 743, (R)-2-fluoro-4-((4-((2-hydroxyethyl)(methyl)amino)pyrimidin-2-yl)amino)-N-(8-methylisoquinolin-1-yl)-N-(piperidin-3-yl)benzamide], 160 nM.
Consider `COCCNc1ccnc(Nc2ccc(C(=O)N(c3nccc4cccc(C)c34)[C@@H]3CCCNC3)c(F)c2)n1` [Example 744, (R)-2-fluoro-4-((4-((2-methoxyethyl)amino)pyrimidin-2-yl)amino)-N-(8-methylisoquinolin-1-yl)-N-(piperidin-3-yl)benzamide], for which the IC50 worked out at 69 nM.
On to `CCCN(C)c1ccnc(Nc2ccc(C(=O)N(c3nccc4cccc(C)c34)[C@@H]3CCCNC3)c(F)c2)n1` [Example 745, (R)-2-fluoro-4-((4-(methyl(propyl)amino)pyrimidin-2-yl)amino)-N-(8-methylisoquinolin-1-yl)-N-(piperidin-3-yl)benzamide], for which the IC50 stood at 160 nM.
For `CCCNc1ccnc(Nc2ccc(C(=O)N(c3nccc4cccc(C)c34)[C@@H]3CCCNC3)c(F)c2)n1` [Example 746, (R)-2-fluoro-N-(8-methylisoquinolin-1-yl)-N-(piperidin-3-yl)-4-((4-(propylamino)pyrimidin-2-yl)amino)benzamide] the value was 33 nM; for `Cc1cc(C(=O)N(c2nccc3cccc(C)c23)[C@@H]2CCCNC2)ccc1Nc1ncccn1` [Example 747, (R)-3-methyl-N-(8-methylisoquinolin-1-yl)-N-(piperidin-3-yl)-4-(pyrimidin-2-ylamino)benzamide], 2700 nM; for `Cc1cccc2ccnc(N(C(=O)c3ccc(Nc4nccc(/C=C/CO)n4)cc3F)[C@@H]3CCCNC3)c12` [Example 748, (R,E)-2-fluoro-4-((4-(3-hydroxyprop-1-en-1-yl)pyrimidin-2-yl)amino)-N-(8-methylisoquinolin-1-yl)-N-(piperidin-3-yl)benzamide], 92 nM.
As for `COC/C=C/c1ccnc(Nc2ccc(C(=O)N(c3nccc4cccc(C)c34)[C@@H]3CCCNC3)c(F)c2)n1` [Example 749, (R,E)-2-fluoro-4-((4-(3-methoxyprop-1-en-1-yl)pyrimidin-2-yl)amino)-N-(8-methylisoquinolin-1-yl)-N-(piperidin-3-yl)benzamide], the IC50 was 140 nM.
Turning to `COCC#Cc1ccnc(Nc2ccc(C(=O)N(c3nccc4cccc(C)c34)[C@@H]3CCCNC3)c(F)c2)n1` [Example 751, (R)-2-fluoro-4-((4-(3-methoxyprop-1-yn-1-yl)pyrimidin-2-yl)amino)-N-(8-methylisoquinolin-1-yl)-N-(piperidin-3-yl)benzamide], the IC50 is 190 nM.
With `COCCCc1ccnc(Nc2ccc(C(=O)N(c3nccc4cccc(C)c34)[C@@H]3CCCNC3)c(F)c2)n1` [Example 752, (R)-2-fluoro-4-((4-(3-methoxypropyl)pyrimidin-2-yl)amino)-N-(8-methylisoquinolin-1-yl)-N-(piperidin-3-yl)benzamide], the 50% inhibitory concentration (IC50) came to 190 nM.
